Where two headings read alike, the source gives them in different places.
What was measured:
[1] = target: T1, human adenosine A2A receptor (Homo sapiens, UniProt P29274); assay: Radioligand displacement assay, human adenosine A2A receptor ([3H]ZM241385, HEK293hA2AR membranes); format: binding; details: for Ki / A2A displacement at 10 µM: n = 3; for A2A displacement at 10 µM: test compound 10 µM
T1 construct: expressed in transfected cells; host or cells: HEK293 cells (HEK293hA2AR), from Dr. J. Wang (Biogen/IDEC); membrane preparation
Protocol: Human embryonic kidney 293 cells stably expressing the human adenosine A2A receptor (HEK293hA2AR) were kindly provided by Dr. J. Wang (Biogen/IDEC, Cambridge, MA, USA), CHO-spap cells stably expressing the wild-type (WT) hA2B receptor (CHO-spap-hA2BR) were kindly provided by S. J. Dowell (GlaxoSmithKline, Brentfort, UK).
(§1) All cells were grown to 80–90% confluency and detached from plates by scraping them into 5 mL phosphate-buffered saline. Detached cells were collected and centrifuged at 200 g for 5 min. Pellets derived from 100 15 cm Ø plates were pooled and resuspended in 70 mL of ice-cold 50 mM tris(hydroxymethyl)aminomethane (Tris)-HCl buffer, pH 7.4. A Heidolph Diax 900 homogenizer was used to homogenize the cell suspension. Membranes and the cytosolic fraction were separated by centrifugation at 100,000 g in a Beckman Optima LE-80 K ultracentrifuge (Beckman Coulter, Fullerton, CA, USA) at 4 °C for 20 min. The pellet was resuspended in 35 mL of the Tris-HCl buffer, and the homogenization and centrifugation steps were repeated. Tris-HCl buffer (25 mL) was used to resuspend the pellet, and adenosine deaminase (ADA) was added (0.8 U/mL) to break down endogenous adenosine. Membranes were stored in 250 µL and 500 µL aliquots at −80 °C. Total protein concentrations were measured using the bicinchoninic acid (BCA) method.
(§2) Nonspecific binding was determined in the presence of 100 µM adenosine-5-N-ethyluronamide (NECA). Incubations were terminated by rapid vacuum filtration to separate the bound and free radioligand through prewetted 96-well GF/B filter plates using a PerkinElmer Filtermate-harvester (Perkin Elmer, Groningen, The Netherlands). Filters were subsequently washed 12 times with ice-cold 50 mM Tris-HCl, pH 7.4.
(§3) The plates of all four adenosine receptor assays were dried at 55 °C after which MicroscintTM-20-cocktail was added (Perkin Elmer, Groningen, The Netherlands).
(§4) All experimental data were analyzed using the non-linear regression curve fitting program GraphPad Prism 7.0 (GraphPad Software Inc., San Diego, CA, USA). IC50 values obtained from competition displacement binding data were converted into Ki values using the Cheng–Prusoff equation.

[2] = target: T2, human adenosine A1 receptor (Homo sapiens, UniProt P30542); assay: Radioligand displacement assay, human adenosine A1 receptor ([3H]DPCPX, CHOhA1R membranes); format: binding; details: for A1 displacement at 1 µM: footnote a: test compound 1 µM; for A1 displacement at 1 µM / inhibition at 10 µM / Ki: n = 3; for inhibition at 10 µM: test compound 10 µM
T2 construct: expressed in transfected cells; host or cells: CHO cells (CHOhA1R), gift of Prof; S. J. Hill; membrane preparation
T2 sequence (P30542 1-326): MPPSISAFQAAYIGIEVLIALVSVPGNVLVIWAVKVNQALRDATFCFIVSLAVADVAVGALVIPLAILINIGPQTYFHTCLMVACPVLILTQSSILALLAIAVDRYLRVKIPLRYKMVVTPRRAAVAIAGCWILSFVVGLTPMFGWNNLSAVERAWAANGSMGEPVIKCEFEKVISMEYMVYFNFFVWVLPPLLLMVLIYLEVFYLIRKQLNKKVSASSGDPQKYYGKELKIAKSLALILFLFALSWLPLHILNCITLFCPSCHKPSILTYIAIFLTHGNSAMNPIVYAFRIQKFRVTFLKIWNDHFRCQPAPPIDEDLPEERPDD
Protocol: as §1, with “Chinese hamster ovary (CHO) cells stably expressing the human adenosine A1 receptor (CHOhA1R) were kindly provided by Prof. S. J. Hill and CHO cells stably expressing the human adenosine A3 receptor (CHOhA3R) were a gift from Dr. K.-N. Klotz (University of Würzburg, Germany). Chinese hamster ovary cells stably expressing the human A1-receptor (CHOhA1R) or the human A3-receptor (CHOhA3R) were grown in Dulbecco’s Modified Eagle’s Medium (DMEM) and Ham’s F12 medium (1:1) supplemented with 10% (v/v) newborn calf serum, 50 µg/mL streptomycin, 50 IU/mL penicillin, and 200 µg/mL G418 at 37 °C and 5% CO2. […] All” for “All”
as §2, with “A1 Receptor: Membrane aliquots containing 5 µg (CHOhA1R) protein were incubated in a total volume of 100 µL assay buffer (50 mM Tris-HCl, pH 7.4) at 25 °C for 1 h. […] Nonspecific” for “Nonspecific”, “N^6-cyclopentyladenosine (CPA).” for “adenosine-5-N-ethyluronamide (NECA).”, “the” for “The”
as §3, §4

[3] = footnote a: tested at 1 µM, read-out: A2A Ki (bound, footnote a)
[4] = footnote a: tested at 1 µM, read-out: A1 Ki (bound, footnote a)
[5] = [3H]ZM241385, read-out: A2A Ki ± SEM
[6] = [3H]DPCPX, read-out: A1 Ki ± SEM

T1 sequence (P29274 whole entry): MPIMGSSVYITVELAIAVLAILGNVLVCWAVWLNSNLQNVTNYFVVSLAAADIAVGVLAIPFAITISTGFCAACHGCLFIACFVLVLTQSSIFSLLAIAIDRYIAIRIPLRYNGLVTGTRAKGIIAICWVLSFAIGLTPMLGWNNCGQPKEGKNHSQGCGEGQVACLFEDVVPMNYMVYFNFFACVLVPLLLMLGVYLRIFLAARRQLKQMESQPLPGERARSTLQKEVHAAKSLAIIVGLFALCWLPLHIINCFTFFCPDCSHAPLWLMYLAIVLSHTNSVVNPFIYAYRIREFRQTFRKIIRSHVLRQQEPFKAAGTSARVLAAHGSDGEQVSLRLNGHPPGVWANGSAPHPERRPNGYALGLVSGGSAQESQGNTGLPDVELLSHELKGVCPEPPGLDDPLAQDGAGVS

Compound	Ki [1, 3] [nM]	A2A displacement at 10 µM [1] [%]	inhibition at 10 µM [2] [%]	other results
CCN(CC)CC.CSc1nc(N)c2ncn([C@H]3[C@H](O)[C@H](O)[C@]4(CNc5c(O)c(=O)c5=O)C[C@H]34)c2n1 [Compound 47, Triethylammonium 2-{[(1R,2R,3S,4R,5S)-4-(6-Amino-2-methylthio-9H-purin-9-yl)-2,3-dihydroxybicyclo[3.1.0]hex-1-yl]methyl}amino-3,4-dioxocyclobut-1-en-1-olate]	> 1000	–	–	A1 displacement at 1 µM [2]: 1% ^a
Nc1cc(Cl)c2ncn([C@H]3[C@H](O)[C@H](O)[C@]4(CO)C[C@H]34)c2n1 [Compound 11, (1R,2R,3S,4R,5S)-4-(5-Amino-7-chloro-3H-imidazo[4,5-b]pyridin-3-yl)-1-(hydroxymethyl)bicyclo[3.1.0]hexane-2,3-diol]	–	4	5	–
OC[C@@]12C[C@@H]1[C@@H](n1cnc3c(NCc4ccccc4)cc(Cl)nc31)[C@H](O)[C@@H]2O [Compound 13, (1R,2R,3S,4R,5S)-4-[7-(Benzylamino)-5-chloro-3H-imidazo[4,5-b]pyridin-3-yl]-1-(hydroxymethyl)bicyclo[3.1.0]hexane-2,3-diol]	–	13	25	–
CSc1nc(N(Cc2ccccc2)Cc2ccccc2)c2ncn([C@H]3[C@H](O)[C@H](O)[C@]4(CO)C[C@H]34)c2n1 [Compound 30, (1R,2R,3S,4R,5S)-4-[6-(Dibenzylamino)-2-methylthio-9H-purin-9-yl]-1-(hydroxymethyl)bicyclo[3.1.0]hexane-2,3-diol]	–	13	30	–
CSc1nc(N)c2ncn([C@H]3[C@H](O)[C@H](O)[C@]4(Cn5cc(CC(=O)O)nn5)C[C@H]34)c2n1 [Compound 45, 2-(1-{[(1R,2R,3S,4R,5S)-4-(6-Amino-2-methylthio-9H-purin-9-yl)-2,3-dihydroxybicyclo[3.1.0]hex-1-yl]methyl}-1H-1,2,3-triazol-4-yl)acetic acid]	> 1000	–	–	Ki [2, 4]: > 1000 nM
Nc1cc(Cl)nc2c1ncn2[C@H]1[C@H](O)[C@H](O)[C@]2(CO)C[C@H]12 [Compound 16, (1R,2R,3S,4R,5S)-4-(7-Amino-5-chloro-3H-imidazo[4,5-b]pyridin-3-yl)-1-(hydroxymethyl)bicyclo[3.1.0]hexane-2,3-diol]	–	42	32	–
COC(=O)Cc1cn(C[C@@]23C[C@@H]2[C@@H](n2cnc4c(N)nc(SC)nc42)[C@H](O)[C@@H]3O)nn1 [Compound 41, Methyl 2-(1-{[(1R,2R,3S,4R,5S)-4-(6-amino-2-methylthio-9H-purin-9-yl)-2,3-dihydroxybicyclo[3.1.0]hex-1-yl]methyl}-1H-1,2,3-triazol-4-yl)acetate]	> 1000	–	–	A1 displacement at 1 µM [2]: 2% ^a
OC[C@@]12C[C@@H]1[C@@H](n1cnc3c(Cl)cc(Cl)nc31)[C@H](O)[C@@H]2O [Compound 12, (1R,2R,3S,4R,5S)-4-(5,7-Dichloro-3H-imidazo[4,5-b]pyridin-3-yl)-1-(hydroxymethyl)bicyclo[3.1.0]hexane-2,3-diol]	–	–	–	Ki [1, 5]: > 10000 nM; Ki [2, 6]: > 10000 nM
COc1ccc(CNc2cc(Cl)nc3c2ncn3[C@H]2[C@H](O)[C@H](O)[C@]3(CO)C[C@H]23)cc1 [Compound 15, (1R,2R,3S,4R,5S)-4-{5-Chloro-7-[(4-methoxy)benzylamino]-3H-imidazo[4,5-b]pyridin-3-yl}-1-(hydroxymethyl)bicyclo[3.1.0]hexane-2,3-diol]	–	2	12	–
CSc1nc(N)c2ncn([C@H]3[C@H](O)[C@H](O)[C@]4(Cn5cc(CO)nn5)C[C@H]34)c2n1 [Compound 39, (1R,2R,3S,4R,5S)-4-(6-Amino-2-methylthio-9H-purin-9-yl)-1-{[4-(hydroxymethyl)-1H-1,2,3-triazol-1-yl]methyl}bicyclo[3.1.0]hexane-2,3-diol]	–	11	5	–
OC[C@@]12C[C@@H]1[C@@H](n1cnc3c(N(Cc4ccccc4)Cc4ccccc4)nc(Cl)nc31)[C@H](O)[C@@H]2O [Compound 27, (1R,2R,3S,4R,5S)-4-[6-(Dibenzylamino)-2-chloro-9H-purin-9-yl]-1-(hydroxymethyl)bicyclo[3.1.0]hexane-2,3-diol]	–	–	15	Ki [1, 5]: > 10000 nM
CSc1nc(N)c2ncn([C@H]3[C@H](O)[C@H](O)[C@]4(Cn5cc(CCC(=O)O)nn5)C[C@H]34)c2n1 [Compound 46]	> 1000	–	–	Ki [2, 4]: > 1000 nM
CCN(CC)CC.CSc1nc(N)c2ncn([C@H]3[C@H](O)[C@H](O)[C@]4(CNS(=O)(=O)CC(=O)O)C[C@H]34)c2n1 [Compound 48, Triethylammonium 2-(N-{[(1R,2R,3S,4R,5S)-4-(6-amino-2-methylthio-9H-purin-9-yl)-2,3-dihydroxybicyclo[3.1.0]hex-1-yl]methyl}sulfamoyl)acetate]	> 1000	–	–	A1 displacement at 1 µM [2]: 3% ^a
Nc1ncnc2c1ncn2[C@H]1[C@H](O)[C@H](O)[C@]2(CO)C[C@H]12 [Compound 36, (N)-methanocarba adenosine]	–	–	–	Ki [1, 5]: 1810 ± 110 nM; fold lower affinity towards A2A receptor than A3 ([1]; relative to A3 Ki): 2 fold; Ki [2, 6]: 6100 ± 460 nM; fold lower affinity towards A1 receptor than A3 ([2]; relative to A3 Ki): 6 fold
CSc1nc(N)c2ncn([C@H]3[C@H](O)[C@H](O)[C@]4(Cn5cc(CN)nn5)C[C@H]34)c2n1 [Compound 43, (1R,2R,3S,4R,5S)-4-(6-Amino-2-methylthio-9H-purin-9-yl)-1-{[4-(aminomethyl)-1H-1,2,3-triazol-1-yl]methyl}bicyclo[3.1.0]hexane-2,3-diol]	–	3	5	–
CSc1nc(N(Cc2ccccc2)Cc2ccccc2)c2ncn([C@H]3[C@H](O)[C@H](O)[C@]4(CCl)C[C@H]34)c2n1 [Compound 31, (1S,2R,3S,4R,5S)-4-[6-(Dibenzylamino)-2-methylthio-9H-purin-9-yl]-1-(chloromethyl)bicyclo[3.1.0]hexane-2,3-diol]	–	–	21	Ki [1, 5]: > 10000 nM
CSc1nc(N)c2ncn([C@H]3[C@H](O)[C@H](O)[C@]4(Cn5cc(C(=O)O)nn5)C[C@H]34)c2n1 [Compound 44, 1-{[(1R,2R,3S,4R,5S)-4-(6-Amino-2-methylthio-9H-purin-9-yl)-2,3-dihydroxybicyclo[3.1.0]hex-1-yl]methyl}-1H-1,2,3-triazole-4-carboxylic acid]	> 1000	–	–	Ki [2, 4]: > 1000 nM
